Columns and labels:
[1] = tested on: murine bone marrow cells; experiment: .THETA.-antigen expression on murine bone marrow cells (T-lymphocyte precursor differentiation); format: cell-based, CBA strain mice; parameters: .THETA.-antigen expression on murine bone marrow cells: unit not given here; conditions: for .THETA.-antigen expression on murine bone marrow cells: Table 1; for Percent of murine bone marrow cells expressing .THETA.-antigen: Table 5
Procedure: Differentiation of murine T-lymphocyte precursors was studied by the enumeration of cells expressing early surface differentiation marker .THETA.-antigen. Bone marrow cells were obtained from CBA strain mice killed by cervical dislocation. Cells were washed from femur bones with Hank's balanced salt solution and washed 3 times with RPM 1-1640 medium by centrifugation at 400 xg. Peptides at desired concentrations were incubated with 1×10^6 /ml of obtained cells for 1 hour at 37° C. Theta-antigen (".THETA.-antigen") expression has been determined with antibrain antibodies in a cytotoxicity assay using complement-dependent cell lysis (Terasaki et al., "Microdroplet Lymphocyte Cytotoxicity Test. Manual of Tissue Typing Techniques," National Institutes of Health, Bethesda, Md., pp 50-55, 1972). Dead cells were counted microscopically after eosin staining. […] Its activity was much stronger than that of the reference thymogen peptide.
Differentiation of murine T-lymphocyte precursors was studied by the enumeration of cells expressing early surface differentiation marker--.THETA.-antigen which is an analog of the Thy-1 lymphocyte differentiation antigen. Bone marrow cells were obtained from CBA strain mice killed by cervical dislocation. Cells were washed from femur bones with Hank's balanced salt solution and washed 3 times with RPMI-1640 medium by centrifugation at 400 xg. Peptides at desired concentrations were incubated with 1×10^6 /ml of obtained cells for 1 hour at 37° C. .THETA.-antigen expression were determined with antibrain antibodies in a cytotoxicity assay using complement-dependent cell lysis (Terasaki et al., 1972). Dead cells were counted microscopically after eosin staining untreated bone marrow cells served as a negative control, and murine thymocytes as a positive control.

[2] = tested on: dogs; experiment: Acute toxicity, single intramuscular dose, dogs; format: in vivo; conditions: single 500.0 mg/kg intramuscular, 14 days
Procedure: (§1) To illustrate this point and in preparation for clinical studies, acute and sub-acute toxicity studies were conducted in animals with Bestim according to conditions of good-laboratory practices. Bestim, prepared as a sterile lyophitized powder in ampoules, was dissolved in sterile 0.9% NaCl solution and injected intramuscularly in all experiments.
Acute toxicity: Rodents (mice and rats) and dogs were randomized into groups of equal numbers of males and females. Animals were inspected daily for 14 days after a single dose of Bestim (intramuscular):
Body weight, overall appearance and behavior were evaluated each day and, at the end of two weeks, macroscopic and histopathological examinations of the internal organs (heart, lungs, pleural and peritoneal cavities, muscles, stomach, small and large intestine, liver, spleen, pancreas, kidneys, bladder, thyroid, brain, skin and testes/ovaries) of all animals were conducted.

[3] = tested on: dogs; experiment: Subacute toxicity, repeated intramuscular injection, dogs; format: in vivo
Procedure: as §1
Subacute Toxicity Studies: In a second set of experiments, Bestim was administered for longer durations, accordingly:
dogs: 1 mg/kg, 10 mg/kg and 100 mg/kg, administered intramuscularly daily for 1 month and for 3 months.

[4] = tested on: patient with colon cancer; experiment: Case History 1: immunodeficiency after cancer chemotherapy (Patient A); format: in vivo, human
Procedure: Patient A was admitted with the diagnosis of colon cancer. Laboratory confirmed immunodeficiency which appeared as a complication of the main illness. Bestim preparation was applied by 5 daily intramuscular injections of 0.1 mg.

[5] = tested on: human subjects; experiment: Side-effects in all 62 human subjects; format: in vivo; conditions: 0.1 mg i.m. per day for 5 days, 62 patients
Procedure: Preliminary studies were conducted to characterize the immunomodulatory properties of Bestim in human subjects. The protocol for the human subjects studies were reviewed and approved by a Hospital Committee (Moscow Hospital N-24) and informed consent was obtained from all subjects. All 62 patients received by intramuscular injection 0.1 mg of Bestim dissolved in 1.5 to 2.0 ml of sterile saline, one injection per day for 5 days. Patients participating in the clinical trials were from 2 groups: […]

`N[C@@H](CCC(=O)N[C@@H](Cc1c[nH]c2ccccc12)C(=O)O)C(=O)O` [Bestim, γ-L-glutamyl-L-tryptophan] was tested, and the “.THETA.-antigen expression on murine bone marrow cells” value (“.THETA.-antigen expression” for short) ([1]; peptide 0.0001 μg/ml, 1 hour 37° C.) was 14 ± 1.5, the “.THETA.-antigen expression” value ([1]; peptide 0.001 μg/ml) was 29 ± 2.4 and the “.THETA.-antigen expression” value ([1]; peptide 0.01 μg/ml) was 30 ± 2.8. For the same compound, the “.THETA.-antigen expression” value ([1]; peptide 0.1 μg/ml) was 34 ± 1.9, the “.THETA.-antigen expression” value ([1]; peptide 1.0 μg/ml) was 49 ± 1.2 and the “.THETA.-antigen expression” value ([1]; peptide 10 μg/ml) was 48 ± 0.8. The “.THETA.-antigen expression” value ([1]; peptide 100 μg/ml) was 47 ± 1.0, the “Percent of murine bone marrow cells expressing .THETA.-antigen” value (shortened to “Percent”) ([1]; peptide 0.0001 μg/ml) was 25% and the “Percent” value ([1]; peptide 0.001 μg/ml) was 31%. The “Percent” value ([1]; peptide 0.01 μg/ml) was 35%, the “Percent” value ([1]; peptide 0.1 μg/ml) was 37% and the “Percent” value ([1]; peptide 1.0 μg/ml) was 49%. The “Percent” value ([1]; peptide 10 μg/ml) was 52%, the “Percent” value ([1]; peptide 100 μg/ml) was 60% and the “potency relative to thymogen” value ([1]; dose-response analysis of Table 1 data) was “at least 500 fold”. The “concentrations with immunostimulatory activity” value ([1]; preclinical studies, summary) was “sub-nanomolar concentrations”, the deaths [2] was “No deaths were observed” and the “general appearance, behavior, body weight, hematological, biochemical and physiological indices, macroscopic and histopathological examination of internal organs” value [2] was “all within normal limits”. The “macroscopic and histological examination of organs” value ([3]; dogs, 1, 10 and 100 mg/kg i.m. daily for 1 and 3 months) was “no significant changes”, the “local inflammatory reactions at the site of injection” value ([3]; dogs, repeated i.m. injection) was “no local inflammatory reactions at the site of injection” and the Lymphocytes ([4]; After Bestim Therapy) was 1800 per mm^3. For the same compound, the “T-Lymphocytes (CD3)” value ([4]; After Bestim Therapy) was 60%, the “T-helper lymphocytes (CD4)” value ([4]; After Bestim Therapy) was 35% and the White blood cells ([4]; After Bestim Therapy (5 daily i.m. 0.1 mg)) was 6.9 × 10^3 per mm^3. The Lymphocytes ([4]; Before Therapy) was 200 per mm^3, the “T-Lymphocytes (CD3)” value ([4]; Before Therapy) was 23% and the “T-helper lymphocytes (CD4)” value ([4]; Before Therapy) was 14%. For the same compound, the White blood cells ([4]; Before Therapy) was 5.5 × 10^3 per mm^3 and the side-effects [5] was “No detectable side-effects”.

From patent US5744452A, “γ-L-glutamyl containing immunomodulator compounds and methods therewith” (Wei; Edward T., priority 1995, dated 1998)
